Assay results from BigSolDB 2.1.

CCc1occc(=O)c1O
solubility (mole fraction)
Conditions | 293.15 K | 298.15 K | 303.15 K | 308.15 K | 313.15 K | 318.15 K | 323.15 K | 328.15 K | 333.15 K
in ethanol | 0.0599 | 0.0798 | 0.0974 | 0.133 | 0.174 | 0.227 | 0.291 | 0.367 | 0.459
in water | 0.0021 | 0.0023 | 0.0027 | 0.0033 | 0.004 | 0.0051 | 0.0067 | 0.0089 | 0.0126
